Measurements published in article PMC3211034, “Optimal Production and Biochemical Properties of a Lipase from Candida albicans” (International Journal of Molecular Sciences, 2011).

Columns and labels:
[1] = molecular target: T1, CaLIP10 (lipase 10 from Candida albicans; product of lip10-dm) (Candida albicans, UniProt Q9P4E5); assay: spectrophotometric release of p-nitrophenol at […] nm; format: biochemical; conditions: 2 mM substrate, 50 mM Tris-HCl pH 8.0, 25 °C
T1 construct: mature protein without signal peptide, cloned from genomic DNA; CTG-Ser codons 210 and 378 recoded to TCT, so the product keeps native Ser210 and Ser378 (no amino-acid change); secreted from Pichia pastoris X33 with pGAPZalphaA; about 50 kDa by SDS-PAGE

[2] = molecular target: T1, CaLIP10 (lipase 10 from Candida albicans; product of lip10-dm); assay: clear zone on tributyrin-emulsion YPD plates, secreting P. pastoris transformants; format: cell-based; conditions: 1% tributyrin emulsion; X-33 and empty-vector control

T1 sequence (Q9P4E5 17-465): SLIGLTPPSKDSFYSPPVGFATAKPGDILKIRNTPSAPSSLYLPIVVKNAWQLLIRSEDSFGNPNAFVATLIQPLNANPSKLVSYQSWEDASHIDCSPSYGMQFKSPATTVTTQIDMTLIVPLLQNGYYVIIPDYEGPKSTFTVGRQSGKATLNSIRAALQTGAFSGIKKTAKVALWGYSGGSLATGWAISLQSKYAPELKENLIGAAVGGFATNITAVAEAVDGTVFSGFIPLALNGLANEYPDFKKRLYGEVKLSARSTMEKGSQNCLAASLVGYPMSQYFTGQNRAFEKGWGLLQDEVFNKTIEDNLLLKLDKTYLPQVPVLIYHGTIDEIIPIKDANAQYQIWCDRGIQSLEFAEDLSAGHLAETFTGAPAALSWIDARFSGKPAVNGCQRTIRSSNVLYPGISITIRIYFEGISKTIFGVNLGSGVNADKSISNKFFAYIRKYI

Compound	spectrophotometric release of p-nitrophenol at 405 nm [1]	clear zone on tributyrin-emulsion YPD plates, secreting P. pastoris transformant [2]
CCCCCCCC(=O)Oc1ccc([N+](=O)[O-])cc1 [p-nitrophenol caprylate]	The lipase activity was determined spectrophotometrically using p-nitrophenol caprylate as substrate.	
CCCC(=O)OCC(COC(=O)CCC)OC(=O)CCC [tributyrin]		a clear zone was formed around wild type lip10 and mutated lip10-dm
